Experimental data taken from patent publication US4605670A, “Method for percutaneously administering metoclopramide” (priority 1984, dated 1986).
Counter-ions that a name gives are not always drawn.

Assay type: in vitro ADME, male albino rats
Text: Rat full thickness skins were used in the diffusion cell method of Michaels, AlChE Journal, 21 [5], 985-996, (1975). The rat skin was mounted in the diffusion cell in a vertical position between the upstream and the downstream compartments; the exposed area of the skin approximated 4.15 cm^2.
The skin was excised from the shaved abdominal site of male albino rats weighing 250~300 g, and washed with normal saline solution after the subcutaneous fat was carefully removed with scissors.
An MCP solution of known concentration was added to the upper compartment of the cell, which was exposed to the epithelial side of the skin and a normal saline solution was placed in the lower compartment.
The penetration rate was studied in a thermostated bath at 30° C. At appropriate intervals samples were withdrawn from the lower compartment and subsequently analyzed for MCP concentration by standard analytical methods. This regimen was used in Examples 1 to 10.
Unless otherwise indicated, in all of the examples, the active agent was MCP.HCl, the MCP.HCl flux is given in terms of ug/cm^2 /8hrs, 25 volume percent of the adjuvant with respect to the adjuvant plus solvent volume was used in combination with 2.5 weight percent of active agent based on the weight of the adjuvant plus solvent; otherwise, all percents are volume percents based on adjuvant, solvent or adjuvant plus solvent volume, depending on the system.
Compositions were typically prepared by merely mixing the adjuvant and solvent together, then mixing the MCP.HCl in the mixture and then, if used, mixing the diol therein. The order of mixing is not important.

MCP.HCl Flux	Compound	MCP HCl flux with increasing MCP HCl concentration
–	CCN(CC)CCNC(=O)c1cc(Cl)c(N)cc1OC [MCP HCl, metoclopramide.HCl, reference compound]	Flux increases linearly with increasing drug concentration
1296 ug/cm^2 /8 hrs	Hydroxy ethyl cellulose	–
843 ug/cm^2 /8 hrs	Hydroxy propyl cellulose	–
